Source: ChEMBL document CHEMBL5143676, “Piezo-Type Mechanosensitive Ion Channel Component 1 (Piezo1): A Promising Therapeutic Target and Its Modulators” (J Med Chem, 2022)
pEC50, pKd: −log10 of the molar value. Blank lines part the entries; values can stand above or below the compound they belong to. Bridge positions count the residues as written; N and C are the ends. Peptide text beside a SMILES is read from it.

What was measured:
[1] = target: T1, Piezo-type mechanosensitive ion channel component 1 (Homo sapiens, UniProt Q92508); test: Binding affinity to Piezo1 (unknown origin) transfected in human HEK293 cells assessed as equilibrium constant at 40 mmHg/+50 mV; type: cell-based
T1 sequence (Q92508 whole entry): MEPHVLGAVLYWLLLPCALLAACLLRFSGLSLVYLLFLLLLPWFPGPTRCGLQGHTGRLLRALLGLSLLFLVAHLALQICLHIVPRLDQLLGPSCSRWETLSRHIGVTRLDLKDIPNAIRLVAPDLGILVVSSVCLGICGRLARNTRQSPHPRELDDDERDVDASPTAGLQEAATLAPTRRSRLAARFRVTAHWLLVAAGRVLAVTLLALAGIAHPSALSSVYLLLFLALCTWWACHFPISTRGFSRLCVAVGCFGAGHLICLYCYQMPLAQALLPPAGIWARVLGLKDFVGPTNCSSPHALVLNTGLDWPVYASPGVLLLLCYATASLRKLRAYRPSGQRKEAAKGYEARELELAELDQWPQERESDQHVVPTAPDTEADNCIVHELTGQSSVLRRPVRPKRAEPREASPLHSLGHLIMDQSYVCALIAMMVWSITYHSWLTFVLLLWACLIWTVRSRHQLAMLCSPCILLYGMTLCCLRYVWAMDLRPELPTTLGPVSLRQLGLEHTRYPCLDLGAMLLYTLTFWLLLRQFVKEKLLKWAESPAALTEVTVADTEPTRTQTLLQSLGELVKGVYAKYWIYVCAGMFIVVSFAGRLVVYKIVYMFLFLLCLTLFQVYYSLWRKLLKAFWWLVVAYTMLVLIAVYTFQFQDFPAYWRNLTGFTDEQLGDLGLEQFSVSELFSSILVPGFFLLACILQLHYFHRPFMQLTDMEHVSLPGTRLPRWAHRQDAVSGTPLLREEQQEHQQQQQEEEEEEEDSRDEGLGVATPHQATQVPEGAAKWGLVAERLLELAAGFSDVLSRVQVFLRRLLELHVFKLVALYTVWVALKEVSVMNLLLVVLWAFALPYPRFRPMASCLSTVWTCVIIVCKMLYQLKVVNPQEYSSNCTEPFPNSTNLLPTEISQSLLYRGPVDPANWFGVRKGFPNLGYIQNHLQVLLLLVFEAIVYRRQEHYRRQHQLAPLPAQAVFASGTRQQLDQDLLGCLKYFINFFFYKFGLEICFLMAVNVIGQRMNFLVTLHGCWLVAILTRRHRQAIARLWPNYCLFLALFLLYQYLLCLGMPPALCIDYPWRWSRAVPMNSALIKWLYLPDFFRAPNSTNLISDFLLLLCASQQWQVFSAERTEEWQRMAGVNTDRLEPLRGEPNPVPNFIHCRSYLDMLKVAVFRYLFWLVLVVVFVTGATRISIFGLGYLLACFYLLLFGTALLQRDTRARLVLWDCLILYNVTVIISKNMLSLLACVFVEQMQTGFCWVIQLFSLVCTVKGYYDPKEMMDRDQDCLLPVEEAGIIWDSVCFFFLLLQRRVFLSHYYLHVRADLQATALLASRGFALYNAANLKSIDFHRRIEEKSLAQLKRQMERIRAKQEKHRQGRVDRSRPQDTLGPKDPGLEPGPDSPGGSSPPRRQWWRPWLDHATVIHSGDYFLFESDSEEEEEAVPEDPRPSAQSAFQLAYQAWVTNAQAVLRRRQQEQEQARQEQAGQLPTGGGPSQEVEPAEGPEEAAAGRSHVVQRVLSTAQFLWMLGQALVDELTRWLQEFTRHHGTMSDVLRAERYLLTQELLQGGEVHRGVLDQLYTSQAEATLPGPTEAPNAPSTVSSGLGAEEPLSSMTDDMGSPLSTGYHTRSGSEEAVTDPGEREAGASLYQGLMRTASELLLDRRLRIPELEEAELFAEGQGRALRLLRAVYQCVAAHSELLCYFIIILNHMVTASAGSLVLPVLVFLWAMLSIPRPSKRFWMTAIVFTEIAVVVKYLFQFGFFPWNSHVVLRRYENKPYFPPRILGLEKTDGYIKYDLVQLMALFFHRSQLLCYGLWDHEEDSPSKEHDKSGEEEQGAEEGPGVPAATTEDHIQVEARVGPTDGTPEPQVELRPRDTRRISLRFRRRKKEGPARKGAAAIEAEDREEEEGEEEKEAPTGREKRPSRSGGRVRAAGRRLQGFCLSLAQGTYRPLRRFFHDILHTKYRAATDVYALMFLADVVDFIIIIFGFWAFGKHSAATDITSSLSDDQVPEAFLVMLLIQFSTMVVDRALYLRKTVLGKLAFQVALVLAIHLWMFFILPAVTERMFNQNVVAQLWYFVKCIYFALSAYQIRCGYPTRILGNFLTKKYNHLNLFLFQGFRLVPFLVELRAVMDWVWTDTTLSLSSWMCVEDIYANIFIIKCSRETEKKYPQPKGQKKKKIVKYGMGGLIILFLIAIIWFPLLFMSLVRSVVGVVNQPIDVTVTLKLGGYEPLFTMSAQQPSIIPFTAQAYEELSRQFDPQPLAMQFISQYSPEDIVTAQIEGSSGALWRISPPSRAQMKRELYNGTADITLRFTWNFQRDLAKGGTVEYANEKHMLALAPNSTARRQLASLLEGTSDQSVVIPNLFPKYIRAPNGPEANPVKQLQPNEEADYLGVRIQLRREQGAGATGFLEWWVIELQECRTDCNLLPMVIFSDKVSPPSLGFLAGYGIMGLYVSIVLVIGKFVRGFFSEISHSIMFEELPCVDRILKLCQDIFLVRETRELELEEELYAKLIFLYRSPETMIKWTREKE

[2] = target: T1, Piezo-type mechanosensitive ion channel component 1; test: Inhibition of Piezo1 (unknown origin) transfected in human HEK293 cells assessed as rightward shift in pressure-gating curve at 50 mV at 1 to 4 uM; type: cell-based; conditions: dose 1-4 µM
[3] = target: T2, Piezo-type mechanosensitive ion channel component 1 (Mus musculus, UniProt E2JF22); test: Inhibition of mouse Piezo1
T2 sequence (E2JF22 whole entry): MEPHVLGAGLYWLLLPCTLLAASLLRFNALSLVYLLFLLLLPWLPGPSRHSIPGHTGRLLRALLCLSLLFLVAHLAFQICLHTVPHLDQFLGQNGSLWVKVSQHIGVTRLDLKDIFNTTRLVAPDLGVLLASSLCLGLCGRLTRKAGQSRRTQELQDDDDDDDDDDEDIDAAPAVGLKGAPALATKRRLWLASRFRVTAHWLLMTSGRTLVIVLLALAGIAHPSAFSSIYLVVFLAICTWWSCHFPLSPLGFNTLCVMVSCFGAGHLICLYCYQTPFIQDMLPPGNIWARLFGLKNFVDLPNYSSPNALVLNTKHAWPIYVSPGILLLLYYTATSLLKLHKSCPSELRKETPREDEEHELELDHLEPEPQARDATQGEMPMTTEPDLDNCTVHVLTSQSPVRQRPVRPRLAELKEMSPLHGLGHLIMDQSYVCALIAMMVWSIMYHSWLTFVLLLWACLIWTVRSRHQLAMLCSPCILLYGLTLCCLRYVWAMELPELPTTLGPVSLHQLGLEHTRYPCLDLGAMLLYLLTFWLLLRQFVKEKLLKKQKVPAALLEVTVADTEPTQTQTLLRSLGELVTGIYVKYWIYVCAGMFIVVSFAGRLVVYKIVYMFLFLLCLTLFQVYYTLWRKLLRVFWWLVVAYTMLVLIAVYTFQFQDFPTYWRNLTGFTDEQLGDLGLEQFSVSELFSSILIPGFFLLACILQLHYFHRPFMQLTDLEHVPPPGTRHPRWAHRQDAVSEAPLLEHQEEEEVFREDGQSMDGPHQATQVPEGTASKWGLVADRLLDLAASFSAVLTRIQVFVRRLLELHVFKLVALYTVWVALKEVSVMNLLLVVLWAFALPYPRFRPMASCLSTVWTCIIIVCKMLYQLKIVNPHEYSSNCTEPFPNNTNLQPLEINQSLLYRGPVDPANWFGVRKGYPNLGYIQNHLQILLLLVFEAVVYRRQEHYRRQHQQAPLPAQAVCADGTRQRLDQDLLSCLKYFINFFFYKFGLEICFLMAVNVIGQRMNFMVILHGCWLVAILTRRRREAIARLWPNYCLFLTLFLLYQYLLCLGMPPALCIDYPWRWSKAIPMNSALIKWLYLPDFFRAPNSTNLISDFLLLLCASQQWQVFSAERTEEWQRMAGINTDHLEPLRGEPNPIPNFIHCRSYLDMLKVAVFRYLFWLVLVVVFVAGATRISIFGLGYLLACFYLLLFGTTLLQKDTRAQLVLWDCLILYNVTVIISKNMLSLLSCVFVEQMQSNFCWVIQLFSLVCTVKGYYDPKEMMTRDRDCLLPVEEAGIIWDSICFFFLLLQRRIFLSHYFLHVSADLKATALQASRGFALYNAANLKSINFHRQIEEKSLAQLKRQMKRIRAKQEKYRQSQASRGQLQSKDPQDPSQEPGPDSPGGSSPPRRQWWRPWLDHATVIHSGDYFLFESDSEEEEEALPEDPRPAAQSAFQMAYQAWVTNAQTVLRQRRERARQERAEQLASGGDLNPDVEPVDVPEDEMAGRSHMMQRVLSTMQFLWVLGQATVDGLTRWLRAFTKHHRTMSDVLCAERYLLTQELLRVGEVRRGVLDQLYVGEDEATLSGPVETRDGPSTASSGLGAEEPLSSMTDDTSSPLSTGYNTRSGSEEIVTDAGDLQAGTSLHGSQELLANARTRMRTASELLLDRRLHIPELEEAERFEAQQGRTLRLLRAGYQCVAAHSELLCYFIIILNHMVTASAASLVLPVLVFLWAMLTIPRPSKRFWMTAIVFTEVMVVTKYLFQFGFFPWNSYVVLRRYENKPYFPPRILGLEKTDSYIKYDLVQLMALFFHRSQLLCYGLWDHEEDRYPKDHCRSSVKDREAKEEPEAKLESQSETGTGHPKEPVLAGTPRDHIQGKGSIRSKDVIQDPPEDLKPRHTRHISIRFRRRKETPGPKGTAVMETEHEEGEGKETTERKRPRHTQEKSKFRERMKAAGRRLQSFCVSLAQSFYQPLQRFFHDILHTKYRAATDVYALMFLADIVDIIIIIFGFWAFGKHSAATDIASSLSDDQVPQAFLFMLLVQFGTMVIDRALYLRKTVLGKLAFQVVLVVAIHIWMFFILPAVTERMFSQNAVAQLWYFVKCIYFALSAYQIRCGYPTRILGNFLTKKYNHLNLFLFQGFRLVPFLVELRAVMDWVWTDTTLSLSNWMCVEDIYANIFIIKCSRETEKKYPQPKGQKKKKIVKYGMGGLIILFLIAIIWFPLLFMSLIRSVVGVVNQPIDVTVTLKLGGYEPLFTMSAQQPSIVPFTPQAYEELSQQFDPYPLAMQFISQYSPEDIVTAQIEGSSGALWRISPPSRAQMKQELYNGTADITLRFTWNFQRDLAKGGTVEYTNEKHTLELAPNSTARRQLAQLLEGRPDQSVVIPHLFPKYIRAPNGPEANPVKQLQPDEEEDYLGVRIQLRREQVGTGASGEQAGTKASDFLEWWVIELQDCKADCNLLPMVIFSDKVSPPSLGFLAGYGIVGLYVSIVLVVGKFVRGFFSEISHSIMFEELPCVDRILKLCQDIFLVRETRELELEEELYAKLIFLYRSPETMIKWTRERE

[4] = target: T2, Piezo-type mechanosensitive ion channel component 1; test: Binding affinity to mouse Piezo1 assessed as dissociation constant by SPR assay
[5] = target: T2, Piezo-type mechanosensitive ion channel component 1; test: Agonist activity at mouse Piezo1 transfected in human HEK293T cells by FLIPR assay; type: cell-based
[6] = target: T1, Piezo-type mechanosensitive ion channel component 1; test: Agonist activity at human Piezo1 transfected in human HEK293T cells by FLIPR assay; type: cell-based

Ke [1]: 155 nM | Activity [2]: 30 mmHg
Structure (SMILES): CC(C)C[C@@H]1NC(=O)[C@@H](NC(=O)CN)CSSC[C@@H]2NC(=O)[C@@H]3CSSC[C@@H](C(=O)N[C@@H](CC(N)=O)C(=O)N[C@@H](Cc4ccccc4)C(=O)N[C@@H](CO)C(=O)N[C@@H](Cc4ccccc4)C(N)=O)NC(=O)[C@H](CC(C)C)NC(=O)[C@H](CCCCN)NC(=O)[C@H](Cc4ccccc4)NC(=O)[C@H](CC(C)C)NC(=O)[C@H](CCCCN)NC(=O)[C@H](CO)NC(=O)[C@H](CSSC[C@H](NC(=O)[C@H](CCCCN)NC(=O)[C@H](Cc4c[nH]c5ccccc45)NC(=O)[C@H](Cc4c[nH]c5ccccc45)NC(=O)[C@H](Cc4ccccc4)NC(=O)[C@H](CCC(=O)O)NC1=O)C(=O)N[C@@H](CC(N)=O)C(=O)N1CCC[C@H]1C(=O)N[C@@H](CC(N)=O)C(=O)N[C@@H](CC(=O)O)C(=O)N[C@@H](CC(=O)O)C(=O)N[C@@H](CCCCN)C(=O)N3)NC(=O)[C@H](CCCCN)NC(=O)[C@H](CC(C)C)NC(=O)[C@H](CCCCN)NC(=O)[C@@H]1CCCN1C(=O)[C@H](CCCNC(=N)N)NC2=O (H-GCLEFWWKCNPNDDKCCRPKLKCSKLFKLCNFSF-NH2; disulfide 2-17, 9-23, 16-30)

pEC50 [3]: 3.70
Structure (SMILES): Cc1oc(-c2ccccc2)cc1C(=O)O

pKd [4]: 2.65
Structure (SMILES): Cc1oc(-c2cccs2)cc1C(=O)O

pEC50 [5]: 4.77 | pEC50 [6]: 4.58
Structure (SMILES): Clc1cccc(Cl)c1CSc1nnc(-c2cnccn2)s1
